Results taken from US20250235455A1, “AQUEOUS TICAGRELOR SOLUTIONS, METHOD OF MANUFACTURING AND USES” (HYLORIS DEVELOPMENTS SA, priority 2022, published 2025).
Marks after values point to notes of the source that are not given here.

Legend:
[1] = Solubility of ticagrelor in SBECD (appearance on shaking platform); type: physicochemical
Method: (§1) In a first example two different types of cyclodextrin were used and compared for the solubilization of ticagrelor. An unbuffered stock solution of HPβCD or SBECD was made in water at the target concentrations of 20 w/w %, 25 w/w %, 30 w/w %, 35 w/w % and 40 w/w %. Ticagrelor was added slowly under vortex. Ticagrelor was used at concentrations of 5, 10 or 14 mg/ml in milli Q water. The ticagrelor-cyclodextrin solutions were left on a shaking platform. No sonification or heat was applied.

[2] = Solubility of ticagrelor in HPβCD (appearance on shaking platform); type: physicochemical
Method: as §1

[3] = SBECD 20% w/w, ticagrelor 5 mg/ml
[4] = SBECD 20% w/w, ticagrelor 10 mg/ml
[5] = SBECD 20% w/w, ticagrelor 14 mg/ml
[6] = SBECD 25% w/w, ticagrelor 5 mg/ml
[7] = SBECD 25% w/w, ticagrelor 10 mg/ml
[8] = SBECD 25% w/w, ticagrelor 14 mg/ml
[9] = SBECD 30% w/w, ticagrelor 5 mg/ml
[10] = SBECD 30% w/w, ticagrelor 10 mg/ml
[11] = SBECD 30% w/w, ticagrelor 14 mg/ml
[12] = SBECD 35% w/w, ticagrelor 5 mg/ml
[13] = SBECD 35% w/w, ticagrelor 10 mg/ml
[14] = SBECD 35% w/w, ticagrelor 14 mg/ml
[15] = SBECD 40% w/w, ticagrelor 5 mg/ml
[16] = SBECD 40% w/w, ticagrelor 10 mg/ml
[17] = SBECD 40% w/w, ticagrelor 14 mg/ml
[18] = HPβCD 20% w/w, ticagrelor 5 mg/ml
[19] = HPβCD 20% w/w, ticagrelor 10 mg/ml
[20] = HPβCD 20% w/w, ticagrelor 14 mg/ml
[21] = HPβCD 25% w/w, ticagrelor 5 mg/ml
[22] = HPβCD 25% w/w, ticagrelor 10 mg/ml
[23] = HPβCD 25% w/w, ticagrelor 14 mg/ml
[24] = HPβCD 30% w/w, ticagrelor 5 mg/ml
[25] = HPβCD 30% w/w, ticagrelor 10 mg/ml
[26] = HPβCD 30% w/w, ticagrelor 14 mg/ml
[27] = HPβCD 35% w/w, ticagrelor 5 mg/ml
[28] = HPβCD 35% w/w, ticagrelor 10 mg/ml
[29] = HPβCD 35% w/w, ticagrelor 14 mg/ml
[30] = HPβCD 40% w/w, ticagrelor 5 mg/ml
[31] = HPβCD 40% w/w, ticagrelor 10 mg/ml
[32] = HPβCD 40% w/w, ticagrelor 14 mg/ml

CCCSc1nc(N[C@@H]2C[C@H]2c2ccc(F)c(F)c2)c2nnn([C@@H]3C[C@H](OCCO)[C@@H](O)[C@H]3O)c2n1 [Ticagrelor, (1S,2S,3R,5S)-3-{7-[(1R,2S)-2-(3,4-difluorophenyl)cyclopropylamino]5-(propylthio)-3H-(1,2,3)triazolo (4,5-D)pyrimidin-3-yl}-5-(2 hydroxyethoxy)cyclopentane-1,2-diol]
Appearance After 5 min of shaking [1, 3]: − (translucent solution with precipitation) | Appearance After 30 min of shaking [1, 3]: − (translucent solution with precipitation) | Appearance After 60 min of shaking [1, 3]: − (translucent solution with precipitation) | Appearance After 3 h of shaking [1, 3]: − (translucent solution with precipitation) | Appearance After overnight shaking [1, 3]: − (translucent solution with precipitation) | Appearance After 5 min of shaking [1, 4]: − (translucent solution with precipitation) | Appearance After 30 min of shaking [1, 4]: − (translucent solution with precipitation) | Appearance After 60 min of shaking [1, 4]: − (translucent solution with precipitation) | Appearance After 3 h of shaking [1, 4]: − (translucent solution with precipitation) | Appearance After overnight shaking [1, 4]: − (translucent solution with precipitation) | Appearance After 5 min of shaking [1, 5]: − (translucent solution with precipitation) | Appearance After 30 min of shaking [1, 5]: − (translucent solution with precipitation) | Appearance After 60 min of shaking [1, 5]: − (translucent solution with precipitation) | Appearance After 3 h of shaking [1, 5]: − (translucent solution with precipitation) | Appearance After overnight shaking [1, 5]: − (translucent solution with precipitation) | Appearance After 5 min of shaking [1, 6]: − (translucent solution with precipitation) | Appearance After 30 min of shaking [1, 6]: − (translucent solution with precipitation) | Appearance After 60 min of shaking [1, 6]: − (translucent solution with precipitation) | Appearance After 3 h of shaking [1, 6]: − (translucent solution with precipitation) | Appearance After overnight shaking [1, 6]: − (translucent solution with precipitation) | Appearance After 5 min of shaking [1, 7]: − (translucent solution with precipitation) | Appearance After 30 min of shaking [1, 7]: − (translucent solution with precipitation) | Appearance After 60 min of shaking [1, 7]: − (translucent solution with precipitation) | Appearance After 3 h of shaking [1, 7]: − (translucent solution with precipitation) | Appearance After overnight shaking [1, 7]: − (translucent solution with precipitation) | Appearance After 5 min of shaking [1, 8]: − (translucent solution with precipitation) | Appearance After 30 min of shaking [1, 8]: − (translucent solution with precipitation) | Appearance After 60 min of shaking [1, 8]: − (translucent solution with precipitation) | Appearance After 3 h of shaking [1, 8]: − (translucent solution with precipitation) | Appearance After overnight shaking [1, 8]: − (translucent solution with precipitation) | Appearance After 5 min of shaking [1, 9]: − (translucent solution with precipitation) | Appearance After 30 min of shaking [1, 9]: − (translucent solution with precipitation) | Appearance After 60 min of shaking [1, 9]: − (translucent solution with precipitation) | Appearance After 3 h of shaking [1, 9]: − (translucent solution with precipitation) | Appearance After overnight shaking [1, 9]: − (translucent solution with precipitation) | Appearance After 5 min of shaking [1, 10]: − (translucent solution with precipitation) | Appearance After 30 min of shaking [1, 10]: − (translucent solution with precipitation) | Appearance After 60 min of shaking [1, 10]: − (translucent solution with precipitation) | Appearance After 3 h of shaking [1, 10]: − (translucent solution with precipitation) | Appearance After overnight shaking [1, 10]: − (translucent solution with precipitation) | Appearance After 5 min of shaking [1, 11]: − (translucent solution with precipitation) | Appearance After 30 min of shaking [1, 11]: − (translucent solution with precipitation) | Appearance After 60 min of shaking [1, 11]: − (translucent solution with precipitation) | Appearance After 3 h of shaking [1, 11]: − (translucent solution with precipitation) | Appearance After overnight shaking [1, 11]: − (translucent solution with precipitation) | Appearance After 5 min of shaking [1, 12]: − (translucent solution with precipitation) | Appearance After 30 min of shaking [1, 12]: +/− | Appearance After 60 min of shaking [1, 12]: +/− | Appearance After 3 h of shaking [1, 12]: +/− | Appearance After overnight shaking [1, 12]: − (translucent solution with precipitation) | Appearance After 5 min of shaking [1, 13]: − (translucent solution with precipitation) | Appearance After 30 min of shaking [1, 13]: − (translucent solution with precipitation) | Appearance After 60 min of shaking [1, 13]: − (translucent solution with precipitation) | Appearance After 3 h of shaking [1, 13]: − (translucent solution with precipitation) | Appearance After overnight shaking [1, 13]: − (translucent solution with precipitation) | Appearance After 5 min of shaking [1, 14]: − (translucent solution with precipitation) | Appearance After 30 min of shaking [1, 14]: − (translucent solution with precipitation) | Appearance After 60 min of shaking [1, 14]: − (translucent solution with precipitation) | Appearance After 3 h of shaking [1, 14]: − (translucent solution with precipitation) | Appearance After overnight shaking [1, 14]: − (translucent solution with precipitation) | Appearance After 5 min of shaking [1, 15]: − (translucent solution with precipitation) | Appearance After 30 min of shaking [1, 15]: +/− | Appearance After 60 min of shaking [1, 15]: +/− | Appearance After 3 h of shaking [1, 15]: +/− | Appearance After overnight shaking [1, 15]: + (clear, appeared completely dissolved) | Appearance After 5 min of shaking [1, 16]: − (translucent solution with precipitation) | Appearance After 30 min of shaking [1, 16]: − (translucent solution with precipitation) | Appearance After 60 min of shaking [1, 16]: − (translucent solution with precipitation) | Appearance After 3 h of shaking [1, 16]: − (translucent solution with precipitation) | Appearance After overnight shaking [1, 16]: − (translucent solution with precipitation) | Appearance After 5 min of shaking [1, 17]: − (translucent solution with precipitation) | Appearance After 30 min of shaking [1, 17]: − (translucent solution with precipitation) | Appearance After 60 min of shaking [1, 17]: − (translucent solution with precipitation) | Appearance After 3 h of shaking [1, 17]: − (translucent solution with precipitation) | Appearance After overnight shaking [1, 17]: − (translucent solution with precipitation) | Appearance ([2]; 5 mg/ml ticagrelor with 25, 30, 35 and 40 w/w % HPβCD): Clear | Appearance on standing ([2]; 5 mg/ml, HPβCD 40%, 35% or 30% w/w in milliQ water, at least three days at room temperature and several days at 4° C.): remained clear | Appearance After 5 min of shaking [2, 18]: − (translucent solution with precipitation) | Appearance After 30 min of shaking [2, 18]: +/− | Appearance After 60 min of shaking [2, 18]: +/− | Appearance After 3 h of shaking [2, 18]: +/− | Appearance After overnight shaking [2, 18]: − (translucent solution with precipitation) | Appearance After 5 min of shaking [2, 19]: − (translucent solution with precipitation) | Appearance After 30 min of shaking [2, 19]: − (translucent solution with precipitation) | Appearance After 60 min of shaking [2, 19]: − (translucent solution with precipitation) | Appearance After 3 h of shaking [2, 19]: − (translucent solution with precipitation) | Appearance After overnight shaking [2, 19]: − (translucent solution with precipitation) | Appearance After 5 min of shaking [2, 20]: − (translucent solution with precipitation) | Appearance After 30 min of shaking [2, 20]: − (translucent solution with precipitation) | Appearance After 60 min of shaking [2, 20]: − (translucent solution with precipitation) | Appearance After 3 h of shaking [2, 20]: − (translucent solution with precipitation) | Appearance After overnight shaking [2, 20]: − (translucent solution with precipitation) | Appearance After 5 min of shaking [2, 21]: − (translucent solution with precipitation) | Appearance After 30 min of shaking [2, 21]: +/− | Appearance After 60 min of shaking [2, 21]: +/− | Appearance After 3 h of shaking [2, 21]: +/− | Appearance After overnight shaking ([2]; HPβCD 25% w/w, ticagrelor 5 mg/ml, after one hour of sonication): +* (clear, appeared completely dissolved) | Appearance After 5 min of shaking [2, 22]: − (translucent solution with precipitation) | Appearance After 30 min of shaking [2, 22]: − (translucent solution with precipitation) | Appearance After 60 min of shaking [2, 22]: − (translucent solution with precipitation) | Appearance After 3 h of shaking [2, 22]: − (translucent solution with precipitation) | Appearance After overnight shaking [2, 22]: − (translucent solution with precipitation) | Appearance After 5 min of shaking [2, 23]: − (translucent solution with precipitation) | Appearance After 30 min of shaking [2, 23]: − (translucent solution with precipitation) | Appearance After 60 min of shaking [2, 23]: − (translucent solution with precipitation) | Appearance After 3 h of shaking [2, 23]: − (translucent solution with precipitation) | Appearance After overnight shaking [2, 23]: − (translucent solution with precipitation) | Appearance After 5 min of shaking [2, 24]: − (translucent solution with precipitation) | Appearance After 30 min of shaking [2, 24]: +/− | Appearance After 60 min of shaking [2, 24]: +/− | Appearance After 3 h of shaking [2, 24]: +/− | Appearance After overnight shaking [2, 24]: + (clear, appeared completely dissolved) | Appearance After 5 min of shaking [2, 25]: − (translucent solution with precipitation) | Appearance After 30 min of shaking [2, 25]: − (translucent solution with precipitation) | Appearance After 60 min of shaking [2, 25]: − (translucent solution with precipitation) | Appearance After 3 h of shaking [2, 25]: − (translucent solution with precipitation) | Appearance After overnight shaking [2, 25]: − (translucent solution with precipitation) | Appearance After 5 min of shaking [2, 26]: − (translucent solution with precipitation) | Appearance After 30 min of shaking [2, 26]: − (translucent solution with precipitation) | Appearance After 60 min of shaking [2, 26]: − (translucent solution with precipitation) | Appearance After 3 h of shaking [2, 26]: − (translucent solution with precipitation) | Appearance After overnight shaking [2, 26]: − (translucent solution with precipitation) | Appearance After 5 min of shaking [2, 27]: +/− | Appearance After 30 min of shaking [2, 27]: +/− | Appearance After 60 min of shaking [2, 27]: +/− | Appearance After 3 h of shaking [2, 27]: +/− | Appearance After overnight shaking [2, 27]: + (clear, appeared completely dissolved) | Appearance After 5 min of shaking [2, 28]: − (translucent solution with precipitation) | Appearance After 30 min of shaking [2, 28]: +/− | Appearance After 60 min of shaking [2, 28]: +/− | Appearance After 3 h of shaking [2, 28]: +/− | Appearance After overnight shaking [2, 28]: + (clear, appeared completely dissolved) | Appearance After 5 min of shaking [2, 29]: − (translucent solution with precipitation) | Appearance After 30 min of shaking [2, 29]: +/− | Appearance After 60 min of shaking [2, 29]: +/− | Appearance After 3 h of shaking [2, 29]: +/− | Appearance After overnight shaking [2, 29]: +/− | Appearance After 5 min of shaking [2, 30]: + (clear, appeared completely dissolved) | Appearance After 30 min of shaking [2, 30]: + (clear, appeared completely dissolved) | Appearance After 60 min of shaking [2, 30]: + (clear, appeared completely dissolved) | Appearance After 3 h of shaking [2, 30]: + (clear, appeared completely dissolved) | Appearance After overnight shaking [2, 30]: + (clear, appeared completely dissolved) | Appearance After 5 min of shaking [2, 31]: − (translucent solution with precipitation) | Appearance After 30 min of shaking [2, 31]: +/− | Appearance After 60 min of shaking [2, 31]: +/− | Appearance After 3 h of shaking [2, 31]: +/− | Appearance After overnight shaking [2, 31]: + (clear, appeared completely dissolved) | Appearance After 5 min of shaking [2, 32]: − (translucent solution with precipitation) | Appearance After 30 min of shaking [2, 32]: +/− | Appearance After 60 min of shaking [2, 32]: +/− | Appearance After 3 h of shaking [2, 32]: +/−
